Experimental data: paper PMC10743086, “Immunofluorescence-Based Assay for High-Throughput Analysis of Multidrug Resistance Markers in Non-Small Cell Lung Carcinoma Patient-Derived Cells” (Diagnostics, 2023)

How the values were obtained:
Format in all cases: cell-based, human
[1] = test system: ABCB1 expression in MRC-5 cells; assay: Immunofluorescence assay of MDR marker ABCB1 expression; settings: five concentrations, 24 h
Protocol: (§1) Vinorelbine and pemetrexed were purchased from Selleckchem (Houston, TX, USA). Carboplatin, cisplatin, docetaxel, etoposide, gemcitabine, gefitinib, and paclitaxel were purchased from Sigma-Aldrich Chemie GmbH (Taufkirchen, Germany). The cisplatin, carboplatin, and gemcitabine were dissolved in sterile water, while the etoposide, docetaxel, vinorelbine, paclitaxel, gefitinib, and pemetrexed were dissolved in DMSO and stored at −20 °C. Before treatment, all the stock solutions were freshly diluted in sterile water.
(§2) The compounds were administered 48 h after seeding. The treatment lasted 24 h.
(§3) The immunofluorescence assay for the quantification of MDR markers was optimized to distinguish cancer cells from stromal cells using a cytokeratin 8/18 (CK8/18) antibody cocktail. The cells were fixed with 4% paraformaldehyde for 20 min at RT and washed three times with PBS using the Wellwash Versa microplate washer (Thermo Fisher Scientific, Waltham, MA, USA). The cells were then blocked with 2% bovine serum albumin (BSA) in PBS for 1 h at RT. […] Co-immunostaining with antibodies against MDR markers was performed to detect the presence of ABCB1, ABCC1, and ABCG2 in both the cancer and stromal cells. […] The secondary antibodies were incubated with the cells at RT for 2 h in the dark. […] Finally, the cells were washed three times with PBS and stored at 4 °C in the dark before imaging.
(§4) The fluorescently labeled cells were imaged using the ImageXpress Pico Automated Cell Imaging System (Molecular Devices, San Jose, CA, USA) with a 4x objective after determining the appropriate exposure time for each illumination filter. Analysis of the obtained images was performed using CellReporterXpress software v. 2.8.2.669 (Molecular Devices). The cytotoxicity of the compounds was determined using the Cell Scoring Analysis Protocol. […] Expression of MDR markers was determined using the Multi-Wavelength Cell Scoring Analysis Protocol.

[2] = test system: ABCB1 expression in NCI-H460/R cells; assay: as above; settings: five concentrations, 24 h
Protocol: as §1, §2, §3, §4

[3] = test system: ABCB1 expression in NCI-H460 cells; assay: as above; settings: five concentrations, 24 h
Protocol: as §1, §2, §3, §4

NCI-H460 cells = assay: Cytotoxicity by immunofluorescence cell scoring (cell counts), NSCLC cell line; settings: Homo sapiens, NCI-H460, 24 h, 24 h treatment
Protocol: as §1, §2, §3, §4

[4] = test system: Cancer cells (CK8/18+) of patient-derived NSCLC cultures; assay: Cytotoxicity in patient-derived NSCLC cultures, cancer cells; settings: Homo sapiens, 168 h, 7 days treatment
Protocol: (§5) Tissue samples were collected during surgery, and the NSCLC diagnosis, histological grade, stage, necrosis, and lymph node invasion status were determined by histopathological analysis. […] The surgical specimens were placed in a sterile tube containing antibiotic-antimycotic solution (Sigma-Aldrich Chemie GmbH, Taufkirchen, Germany) and immediately transported to the research laboratory for further processing.
(§6) Upon arrival, the tissue was manually chopped with a surgical blade in a Petri dish under sterile conditions. The samples were cut into 3–5 mm pieces and further dissociated using the Tumor Dissociation Kit (Miltenyi Biotec, Bergisch Gladbach, Germany). The Tumor Dissociation Kit was used to dissociate the cells from the tumor tissue according to the manufacturer’s instructions. The samples were incubated in a 37 °C orbital shaker (KS 4000 ic control, IKA, Königswinter, Germany) at 300 rpm for 90 min. After incubation, the dissociated tissue was placed in DMEM/Ham’s F12 (1:3 ratio) growth medium supplemented with 5% fetal bovine serum (Corning, NY, USA), antibiotic-antimycotic solution, 4 µg/mL hydrocortisone (Sigma-Aldrich Chemie GmbH, Taufkirchen, Germany), 1 µg/mL insulin (Sigma-Aldrich Chemie GmbH, Taufkirchen, Germany), 10 ng/mL epidermal growth factor (BioLegend, San Diego, CA, USA), and 24 µg/mL adenine (Sigma-Aldrich Chemie GmbH, Taufkirchen, Germany). The DMEM and Ham’s F12 growth media were purchased from Sigma-Aldrich Chemie GmbH (Taufkirchen, Germany).
(§7) The dissociated tissue was cultured in T-25 cell culture flasks until cell attachment was observed before the medium was replaced. If no cell attachment was achieved within 7 days, the sample was discarded. Successful patient-derived cultures were maintained at 37 °C in a humidified atmosphere with 5% CO2 and grown to confluence before undergoing further experiments. […] Partial trypsinization was performed by detaching the fibroblast-like cells with 1 mL of 0.05% trypsin for 1 min at 37 °C, followed by 2 min at room temperature (RT).
as §1
(§8) The primary cells were seeded in black, clear bottom 384-well cell culture microplates (Thermo Fisher Scientific, Waltham, MA, USA) in 50 µL of cell growth medium at a density of 1000 cells per well. The compounds were administered 72 h after seeding. The treatment lasted 7 days.
as §3

[5] = test system: ABCG2 expression in cancer cells (CK8/18+); assay: Immunofluorescence assay of ABCG2 expression in patient-derived NSCLC cultures; settings: 7 days
Protocol: as §5, §6, §7, §1, §8, §3

NCI-H460/R cells = assay: Cytotoxicity by immunofluorescence cell scoring (cell counts), multidrug-resistant NSCLC cell line; settings: Homo sapiens, 24 h treatment
From the text: Human non-small cell lung carcinoma cells (NCI-H460) were purchased from the American Type Culture Collection (Rockville, MD, USA), and normal embryonic lung fibroblasts (MRC-5) were purchased from the European Collection of Authenticated Cell Cultures (Salisbury, UK). Multidrug-resistant NCI-H460/R cells overexpressing ABCB1 were selected from the NCI-H460 cells after selective pressure with doxorubicin [21]. All the cell lines were maintained in MEM medium (Sigma-Aldrich Chemie GmbH, Taufkirchen, Germany) supplemented with 10% FBS, 2 mM L-glutamine, and antibiotic-antimycotic solution. All the cell lines were maintained at 37 °C in a humidified atmosphere with 5% CO2.
as §1, §2, §3, §4

[6] = test system: Non-cancer cells (CK8/18-) of patient-derived NSCLC cultures; assay: Cytotoxicity in patient-derived NSCLC cultures, non-cancer cells; settings: Homo sapiens, 168 h, 7 days treatment
Protocol: as §5, §6, §7, §1, §8, §3

[7] = MRC-5 (co-culture with NCI-H460)
[8] = MRC-5 (co-culture with NCI-H460/R)
[9] = NCI-H460/R (co-culture with MRC-5)
[10] = NCI-H460 (co-culture with MRC-5)
[11] = culture TR58, cancer cells (CK8/18+)
[12] = culture TR64, cancer cells (CK8/18+)
[13] = culture TR65, cancer cells (CK8/18+)
[14] = culture TR84, cancer cells (CK8/18+)
[15] = culture TR87, cancer cells (CK8/18+)
[16] = culture TR58, non-cancer cells (CK8/18-)
[17] = culture TR64, non-cancer cells (CK8/18-)
[18] = culture TR65, non-cancer cells (CK8/18-)
[19] = culture TR84, non-cancer cells (CK8/18-)
[20] = culture TR87, non-cancer cells (CK8/18-)

SMILES: Nc1ccn([C@@H]2O[C@H](CO)[C@@H](O)C2(F)F)c(=O)n1 [Gemcitabine, gemcitabine]
- ABCB1 Expression [1, 7]: no change
- ABCB1 Expression [1, 8]: no change
- ABCB1 Expression ([1]; MRC-5 monoculture): no change
- ABCB1 Expression [2, 9]: no change
- ABCB1 Expression ([2]; NCI-H460/R monoculture): no change
- ABCB1 Expression [3, 10]: no change
- ABCB1 Expression ([3]; NCI-H460 monoculture): no change
- IC50 (NCI-H460 cells; [10]): 34.6 µM
- IC50 (NCI-H460 cells; NCI-H460 monoculture): 41.6 µM
- IC50 [4, 11]: 2.55 µM
- IC50 [4, 12]: 4.92 µM
- IC50 [4, 13]: 4.91 µM
- IC50 [4, 14]: 2.68 µM
- IC50 [4, 15]: 3.41 µM
- ABCG2 expression [5, 11]: increase (An increase in ABCB1, ABCC1, or ABCG2 expression of at least 20% at a minimum of one concentration is shown in the table.)
- ABCG2 expression [5, 12]: increase (An increase in ABCB1, ABCC1, or ABCG2 expression of at least 20% at a minimum of one concentration is shown in the table.)
- ABCG2 expression [5, 13]: increase (An increase in ABCB1, ABCC1, or ABCG2 expression of at least 20% at a minimum of one concentration is shown in the table.)
- ABCG2 expression [5, 14]: increase (An increase in ABCB1, ABCC1, or ABCG2 expression of at least 20% at a minimum of one concentration is shown in the table.)
- ABCG2 expression [5, 15]: increase (An increase in ABCB1, ABCC1, or ABCG2 expression of at least 20% at a minimum of one concentration is shown in the table.)
- IC50 (NCI-H460/R cells; [9]): 29.4 µM
- IC50 (NCI-H460/R cells; NCI-H460/R monoculture): 33.6 µM
- IC50 [6, 16]: 3070 nM
- IC50 [6, 17]: 7060 nM
- IC50 [6, 18]: 351 nM
- IC50 [6, 19]: 491 nM
- IC50 [6, 20]: 1130 nM

SMILES: CC(=O)O[C@H]1C(=O)[C@@]2(C)[C@H]([C@H](OC(=O)c3ccccc3)[C@]3(O)C[C@H](OC(=O)[C@H](O)[C@@H](NC(=O)c4ccccc4)c4ccccc4)C(C)=C1C3(C)C)[C@]1(OC(C)=O)CO[C@@H]1C[C@@H]2O [Paclitaxel, paclitaxel]
- ABCB1 Expression [1, 7]: no change
- ABCB1 Expression [1, 8]: no change
- ABCB1 Expression ([1]; MRC-5 monoculture): no change
- ABCB1 Expression [2, 9]: no change
- ABCB1 Expression ([2]; NCI-H460/R monoculture): no change
- ABCB1 Expression [3, 10]: increase (An increase in ABCB1 expression of at least 20% at a minimum of one concentration is shown in the table.)
- ABCB1 Expression ([3]; NCI-H460 monoculture): increase (An increase in ABCB1 expression of at least 20% at a minimum of one concentration is shown in the table.)
- IC50 (NCI-H460 cells; [10]): 0.339 µM
- IC50 (NCI-H460 cells; NCI-H460 monoculture): 0.381 µM
- IC50 [4, 11]: 1.18 µM
- IC50 [4, 12]: 1.35 µM
- IC50 [4, 13]: 1.18 µM
- IC50 [4, 14]: 2.57 µM
- IC50 [4, 15]: 4.79 µM
- ABCG2 expression [5, 11]: increase (An increase in ABCB1, ABCC1, or ABCG2 expression of at least 20% at a minimum of one concentration is shown in the table.)
- ABCG2 expression [5, 12]: increase (An increase in ABCB1, ABCC1, or ABCG2 expression of at least 20% at a minimum of one concentration is shown in the table.)
- ABCG2 expression [5, 13]: increase (An increase in ABCB1, ABCC1, or ABCG2 expression of at least 20% at a minimum of one concentration is shown in the table.)
- ABCG2 expression [5, 14]: increase (An increase in ABCB1, ABCC1, or ABCG2 expression of at least 20% at a minimum of one concentration is shown in the table.)
- ABCG2 expression [5, 15]: increase (An increase in ABCB1, ABCC1, or ABCG2 expression of at least 20% at a minimum of one concentration is shown in the table.)
- IC50 (NCI-H460/R cells; [9]): > 5 µM
- IC50 (NCI-H460/R cells; NCI-H460/R monoculture): > 5 µM
- IC50 [6, 16]: 1400 nM
- IC50 [6, 17]: 1950 nM
- IC50 [6, 18]: 1400 nM
- IC50 [6, 19]: 312 nM
- IC50 [6, 20]: 1870 nM

SMILES: Nc1nc2[nH]cc(CCc3ccc(C(=O)N[C@@H](CCC(=O)O)C(=O)O)cc3)c2c(=O)[nH]1 [Pemetrexed, pemetrexed]
- ABCB1 Expression [1, 7]: no change
- ABCB1 Expression [1, 8]: no change
- ABCB1 Expression ([1]; MRC-5 monoculture): no change
- ABCB1 Expression [2, 9]: no change
- ABCB1 Expression ([2]; NCI-H460/R monoculture): no change
- ABCB1 Expression [3, 10]: no change
- ABCB1 Expression ([3]; NCI-H460 monoculture): no change
- IC50 (NCI-H460 cells; [10]): > 300 µM
- IC50 (NCI-H460 cells; NCI-H460 monoculture): > 300 µM
- IC50 [4, 11]: 181 µM
- IC50 [4, 12]: 252 µM
- IC50 [4, 13]: 231 µM
- IC50 [4, 14]: > 300 µM
- IC50 [4, 15]: > 300 µM
- ABCG2 expression [5, 11]: no change
- ABCG2 expression [5, 12]: no change
- ABCG2 expression [5, 13]: no change
- ABCG2 expression [5, 14]: increase (An increase in ABCB1, ABCC1, or ABCG2 expression of at least 20% at a minimum of one concentration is shown in the table.)
- ABCG2 expression [5, 15]: no change
- IC50 (NCI-H460/R cells; [9]): > 300 µM
- IC50 (NCI-H460/R cells; NCI-H460/R monoculture): > 300 µM
- IC50 [6, 16]: > 300000 nM
- IC50 [6, 17]: > 300000 nM
- IC50 [6, 18]: 25200 nM
- IC50 [6, 19]: > 300000 nM
- IC50 [6, 20]: > 300000 nM
